Experimental data taken from paper PMC3756011, “Evaluation of Memory Enhancing Clinically Available Standardized Extract of Bacopa monniera on P-Glycoprotein and Cytochrome P450 3A in Sprague-Dawley Rats” (PLoS ONE, 2013).
One block for each compound: values may come before it.

How the values were obtained:
[1] = Oral pharmacokinetics of carbamazepine and carbamazepine 10,11-epoxide with and without BM pre-treatment; assay type: in vivo, male Sprague-Dawley rat; conditions: for Cmax / AUC(0-∞) / MRT / CL/F / AUC(0-inf): Mean ± SD
Procedure: Samples were vigorously vortexed for five minutes and centrifuged at 12,000 rpm for 20 minutes at 4°C. Supernatant thus obtained were analysed using HPLC-UV method. […] Column efﬂuent was monitored at 286 nm. The mobile phase was a mixture of 10 mM ammonium acetate (pH 7.4) and acetonitrile (65∶35). Chromatography was performed at a ﬂow rate of 1.0 ml/min. Pharmacokinetic parameters of probe drugs in plasma were derived from plasma concentration-time profile of probe drugs by Non-Compartmental analysis using WinNonlin Ver 5.1 (Pharsight Corporation, Mountain Veiw, CA).

[2] = parameters: method as in PMID 15673597; conditions: rat vs human; cited from earlier work
Pgp = tested on: Pgp; parameters: method as in PMID 11318771; conditions: earlier reports; cited from earlier work
[3] = 2 hours after digoxin 0.2 mg/kg oral, BM pretreated vs vehicle
[4] = Oral pharmacokinetics of digoxin with and without BM pre-treatment; assay type: in vivo, male Sprague-Dawley rat; conditions: for AUC(0-inf) / CL/F / MRT / Vd/F / half-life / Cmax: male, Sprague-Dawley, rat, plasma, po, 0.2 mg/kg
Text: Rats were divided in two groups (total 40 rats; 10 rats each group) for both probe drugs viz. control and BM pre-treated group.
Pharmacokinetic parameters of probe drugs in plasma were derived from plasma concentration-time profile of probe drugs by Non-Compartmental analysis using WinNonlin Ver 5.1 (Pharsight Corporation, Mountain Veiw, CA).

[5] = BM pretreated rats (31 mg/kg/day 7 days), carbamazepine 50 mg/kg oral
[6] = vehicle pretreated rats, carbamazepine 50 mg/kg oral
[7] = BM pre-treated vs vehicle treated rats, abstract
[8] = BM pretreated compared to vehicle pretreated rats
[9] = BM pre-treated compared to vehicle treated rats
[10] = BM pretreated rats (31 mg/kg/day 7 days), digoxin 0.2 mg/kg oral
[11] = vehicle pretreated rats, digoxin 0.2 mg/kg oral

Cmax ([1]; BM pretreated rats (31 mg/kg/day 7 days), carbamazepine 50 mg/kg oral 24 h after last BM): 819 ± 170 ng/mL | AUC(0-∞) [1, 5]: 15100 ± 7360 ng·h/mL | MRT [1, 5]: 21.65 ± 7.69 h | AUC(0-∞) [1, 6]: 14680 ± 2900 ng·h/mL | CL/F [1, 6]: 3.31 ± 0.56 mL/h/kg | Cmax [1, 6]: 1370 ± 11 ng/mL | MRT [1, 6]: 10.05 ± 0.33 h
SMILES: NC(=O)N1c2ccccc2C2OC2c2ccccc21 (stereo not drawn) [CBZ-E, carbamazepine 10,11-epoxide]

SMILES: NC(=O)N1c2ccccc2C=Cc2ccccc21 [CBZ, carbamazepine]
metabolic clearance, rat higher compared to human [2]: 10 fold | Pgp substrate status (Pgp): not a Pgp substrate | increase in AUC following BM pre-treatment [1, 7]: 4 fold | increase in Cmax following BM pre-treatment [1, 7]: 1.8 fold | decrease in CL/F in BM pretreated rats [1, 8]: 3.8 times | increase in mean AUC in BM pretreated rats [1, 8]: 4 times | increase in mean Cmax in BM pretreated rats [1, 8]: 1.8 times | CL/F ([1]; male, Sprague-Dawley, rat, in vivo, po, 50 mg/kg, BM pretreated rats (31 mg/kg/day 7 days), carbamazepine 50 mg/kg oral, read-out: CL/F (converted)): 323 mL/h/kg | CL/F ([1]; male, Sprague-Dawley, rat, in vivo, po, 50 mg/kg, vehicle pretreated rats, carbamazepine 50 mg/kg oral, read-out: CL/F (converted)): 1250 mL/h/kg | Cmax ([1]; male, Sprague-Dawley, rat, plasma, po, 50 mg/kg, BM pretreated rats (31 mg/kg/day 7 days), carbamazepine 50 mg/kg oral 24 h after last BM, read-out: Cmax): 14400 ± 1220 ng/mL | AUC(0-inf) ([1]; male, Sprague-Dawley, rat, plasma, po, 50 mg/kg, BM pretreated rats (31 mg/kg/day 7 days), carbamazepine 50 mg/kg oral): 169000 ± 65600 ng·h/mL | MRT ([1]; male, Sprague-Dawley, rat, plasma, po, 50 mg/kg, BM pretreated rats (31 mg/kg/day 7 days), carbamazepine 50 mg/kg oral, read-out: MRT): 10.7 ± 6.57 h | AUC(0-inf) ([1]; male, Sprague-Dawley, rat, plasma, po, 50 mg/kg, vehicle pretreated rats, carbamazepine 50 mg/kg oral): 40400 ± 3890 ng·h/mL | Cmax ([1]; male, Sprague-Dawley, rat, plasma, po, 50 mg/kg, vehicle pretreated rats, carbamazepine 50 mg/kg oral, read-out: Cmax): 8170 ± 1460 ng/mL | MRT ([1]; male, Sprague-Dawley, rat, plasma, po, 50 mg/kg, vehicle pretreated rats, carbamazepine 50 mg/kg oral, read-out: MRT): 5.46 ± 1.2 h

increase in tissue digoxin concentration in intestine ([3]; intestine): 1.3 fold | increase in tissue digoxin concentration in kidney ([3]; kidney): 1.3 fold | decrease in CL/F with BM pre-treatment [4, 9]: 27% | increase in AUC with BM pre-treatment [4, 9]: 37% | increase in Cmax with BM pre-treatment [4, 9]: 9% | increase in MRT with BM pre-treatment [4, 9]: 17% | increase in T1/2 with BM pre-treatment [4, 9]: 48% | increase in AUC following BM pre-treatment [4, 7]: 1.3 fold | AUC(0-inf) [4, 10]: 70.71 ± 0.351 ng·h/mL | CL/F [4, 10]: 3.53 mL/h/kg | MRT [4, 10]: 8.88 ± 1.28 h | Vd/F [4, 10]: 0.0221 ± 0.0103 L/kg | half-life [4, 10]: 4.33 ± 2.03 h | Cmax ([4]; BM pretreated rats (31 mg/kg/day 7 days), digoxin 0.2 mg/kg oral 24 h after last BM): 5.28 ± 0.205 ng/mL | AUC(0-inf) [4, 11]: 51.5 ± 6.1 ng·h/mL | CL/F [4, 11]: 4.88 mL/h/kg | Cmax [4, 11]: 4.82 ± 0.092 ng/mL | MRT [4, 11]: 7.56 ± 0.0147 h | Vd/F [4, 11]: 0.0208 ± 0.00471 L/kg | half-life [4, 11]: 2.92 ± 0.322 h
SMILES: C[C@H]1O[C@@H](O[C@H]2[C@@H](O)C[C@H](O[C@H]3[C@@H](O)C[C@H](O[C@H]4CC[C@@]5(C)[C@H](CC[C@@H]6[C@@H]5C[C@@H](O)[C@]5(C)[C@@H](C7=CC(=O)OC7)CC[C@]65O)C4)O[C@@H]3C)O[C@@H]2C)C[C@H](O)[C@@H]1O [Digoxin, digoxin]
